According to PMC9322052, “Synthesis and Biological Activity Screening of Newly Synthesized Trimethoxyphenyl-Based Analogues as Potential Anticancer Agents” (Molecules, 2022):

Experiments:
[1] = system: hepatocellular carcinoma HepG2 cell line; assay: MTT cytotoxicity assay, HepG2; assay type: cell-based, human; conditions: 24 h treatment, mean ± SE
Protocol: All the newly synthesized analogs were evaluated for their in vitro cytotoxicity against the hepatocellular carcinoma HepG2 cell line. Podo was utilized as a reference control in the current study. […] The N-phenyl triazinone derivative 9 was further investigated for its cytotoxic effects against normal liver cell line HL-7702.
MTT colorimetric assay was carried out to investigate the impact of the newly synthesized compounds 2–11 on hepatocellular carcinoma (HepG2) and normal liver cell line (HL-7702) cell lines. See Section 3.3.1 in Supplementary Material.
3.3.1. Cytotoxic activity evaluation
To measure the cytotoxic activity of the synthesized derivatives 2a-11 in hepatocel-lular carcinoma (HepG2) cell line (ATCC Cat No. HB-8065) as well as normal human liver cell line HL-7702 (ATCC Cat. No. 77402), cell viability assay was assessed using MTT assay method. Cells at density of 1 x 104 were seeded in a 96-well plate at 37 °C for 24 h under 5% CO2. After incubation, the cells were treated with different concentrations of the test compounds 2a-11 and incubated for 24 h, then 20 μl of MTT solution at 5 mg/mL was applied and incubated for 4 h at 37 °C. Dimethyl sulphoxide (DMSO) in volume of 100 µl was added to each well to dissolve the purple formazan that had formed. The color inten-sity of the formazan product, which represents the growth condition of the cells, is quan-tified by using an ELISA plate reader (EXL 800, USA) at 570 nm absorbance. The experi-mental conditions were carried out with at least three replicates, and the experiments were repeated at least three times.
3.3.2. Tubulin inhibitions Assay
Compounds 9, 10 and 11 were evaluated for their tubulin inhibitory activity levels according to the manufacturer’s instructions using # abcam Human Beta-tubulin simplestep […]
3.3.3. Cell cycle analysis of compound 9
Cell cycle analysis in HepG2 cells was investigated using fluorescent Annexin V-FITC/ PI detection kit (BioVision EZCellTM Cell Cycle Analysis Kit Catalog #K920) by flow cytometry assay. HepG2 cells at a density of 2 × 10^5 per well were harvested and washed twice in PBS. After that, the cells were incubated at 37 °C and 5% CO2. […] Afterward, medium was stained with DNA flu-orochrome PI for 15 min at 37 °C. The samples were immediately analyzed using Facs Calibur flow cytometer (Becton and Dickinson, Heidelberg, Germany).
3.3.4. Apoptosis assay for compound 9
Apoptosis in HepG2 cells was investigated using fluorescent Annexin V-FITC/ PI de-tection kit (BioVision Annexin V-FITC Apoptosis Detection Kit, Catalog #: K101) by flow cy-tometry assay. HepG2 cells at a density of 2 × 10^5 per well were treated with compound 9 at its IC50 (μM) for 48 h, then the cells were harvested and stained with Annexin V-FITC/ PI dye for 15 min in the dark at 37 °C. The samples were immediately analyzed using FACS Calibur flow cytometer (Becton and Dickinson, Heidelberg, Germany).
3.3.5. Measurement of mitochondrial membrane potential (MMP) for compound 9 MMP was measured by FACS analysis using abcam ab113852TMRE Mitochondrial Membrane Potential Assay Kit with DiOC2(3) staining using MitoProbe™ DiOC2(3) Assay Kit for Flow Cytometry (M34150). After treatment with compound 9 at its IC50 concentra-tion, cells were stained with DiOC2(3) dye for 30 min in the incubator, then harvested and washed with PBS. DiOC2(3)-stained cells were represented with Annexin binding buffer and incubated at 37 °C for 15 min. The samples were immediately analyzed using cell […]
3.3.6. Effect on p53, Bax and Bcl-2 p53, Bax and Bcl2 enzyme activities in HepG2 cells were detected in the presence of com-pound 9 at its IC50 concentration (μM). The levels of the tumor suppressor gene p53, apoptotic markers Bax as well as the anti-apoptotic marker Bcl-2 were assessed using p53 ELISA kit, Human Bax ELISA kit and Bcl-2 Elisa kit. […]

SMILES	melting point [°C]	IC50 [1] [µM]	IC50 ([1]; Homo sapiens, HepG2, 24 h) [µM]
COc1ccc(C(=O)N/C(=C\c2cc(OC)c(OC)c(OC)c2)C(=O)NNc2ccccc2)cc1OC (hydrate or solvate) [Compound 5, (Z)-3,4-Dimethoxy-N-(3-oxo-3-(2-Phenylhydrazinyl)-1-(3,4,5-Trimethoxyphenyl)prop-1-en-2-yl)benzamide]	248 to 250	–	–
COC(=O)/C(=C/c1cc(OC)c(OC)c(OC)c1)NC(=O)c1ccc(OC)c(OC)c1 [Compound 2a, (Z)-Methyl 2-(3,4-Dimethoxybenzamido)-3-(3,4,5-Trimethoxyphenyl)acrylate]	248 to 250	14.4 ± 0.82	< 20
CCOC(=O)/C(=C/c1cc(OC)c(OC)c(OC)c1)NC(=O)c1ccc(OC)c(OC)c1 [Compound 2b, (Z)-Ethyl 2-(3,4-Dimethoxybenzamido)-3-(3,4,5-Trimethoxyphenyl)acrylate]	248 to 250	11.1 ± 0.77	< 20
COc1ccc(C(=O)N/C(=C\c2cc(OC)c(OC)c(OC)c2)C(=O)NCC(=O)O)cc1OC [Compound 3a, (Z)-2-(2-(3,4-Dimethoxybenzamido)-3-(3,4,5-Trimethoxyphenyl)acrylamido)acetic Acid]	248 to 250	8.13 ± 0.54	< 10
COc1ccc(C(=O)N/C(=C\c2cc(OC)c(OC)c(OC)c2)C(=O)NC(C)C(=O)O)cc1OC (stereo not drawn) [Compound 3b, (Z)-2-(2-(3,4-Dimethoxybenzamido)-3-(3,4,5-Trimethoxyphenyl)acrylamido)propanoic Acid]	248 to 250	19.4 ± 1.43	< 20
COc1ccc(C(=O)N/C(=C\c2cc(OC)c(OC)c(OC)c2)C(=O)Nc2cccc(C)c2)cc1OC [Compound 4a, (Z)-3,4-Dimethoxy-N-(3-oxo-3-(M-tolylamino)-1-(3,4,5-Trimethoxyphenyl)prop-1-en-2-yl)benzamide]	248 to 250	–	45.5 ± 2.89
COc1ccc(C(=O)N/C(=C\c2cc(OC)c(OC)c(OC)c2)C(=O)Nc2ccc(O)cc2)cc1OC [Compound 4b, (Z)-N-(3-(4-Hydroxyphenylamino)-3-oxo-1-(3,4,5-Trimethoxyphenyl)prop-1-en-2-yl)-3,4-Dimethoxybenzamide]	248 to 250	17.7 ± 1.1	< 20
COc1ccc(NC(=O)/C(=C/c2cc(OC)c(OC)c(OC)c2)NC(=O)c2ccc(OC)c(OC)c2)cc1 [Compound 4c, (Z)-3,4-Dimethoxy-N-(3-(4-Methoxyphenylamino)-3-oxo-1-(3,4,5-Trimethoxyphenyl)prop-1-en-2-yl)benzamide]	248 to 250	–	23.7 ± 1.37
COc1ccc(C(=O)N/C(=C\c2cc(OC)c(OC)c(OC)c2)C(=O)NNc2ccccc2)cc1OC [Compound 5, (Z)-3,4-Dimethoxy-N-(3-oxo-3-(2-Phenylhydrazinyl)-1-(3,4,5-Trimethoxyphenyl)prop-1-en-2-yl)benzamide]	–	9.24 ± 0.52	< 10
COc1ccc(C(=O)N/C(=C\c2cc(OC)c(OC)c(OC)c2)C(=O)NNC(=O)c2ccncc2)cc1OC [Compound 6, (Z)-N-(3-(2-Isonicotinoylhydrazinyl)-3-oxo-1-(3,4,5-Trimethoxyphenyl)prop-1-en-2-yl)-3,4-Dimethoxybenzamide]	248 to 250	8.74 ± 0.57	< 10
COc1ccc(C2=N/C(=C\c3cc(OC)c(OC)c(OC)c3)C(=O)N2c2ccc(O)cc2)cc1OC [Compound 7a, (Z)-2-(3,4-Dimethoxyphenyl)-1-(4-Hydroxyphenyl)-4-(3,4,5-Trimethoxybenzylidene)-1H-Imidazol-5(4H)-one]	248 to 250	–	–
COc1ccc(C2=N/C(=C\c3cc(OC)c(OC)c(OC)c3)C(=O)NN2C(N)=S)cc1OC [Compound 8, (Z)-3-(3,4-Dimethoxyphenyl)-6-oxo-5-(3,4,5-Trimethoxybenzylidene)-5,6-Dihydro-1,2,4-Triazine-2(1H)-Carbothioamide]	248 to 250	–	–
